“And” between values parts separate entries of the source, which are not always exact repeats. Identical values can stand only once. “Also recorded” adds a separate entry of the source.
Assays:
[1] = FIGHT-101; cited from earlier work
clinical = conditions: human, in vivo; for AUC: AUCss,0-24h; for Vd/F: Vz/F; for Tmax: median; for half-life: t½
Method: (§1) Postdose samples were collected at 0.5, 1, 2, 4, 6, and 8 h on Day 1, and at 1 h on Day 14 of Cycle 1. For patients in the CD regimen, a postdose sample at 6 h on Day 14 was also collected.
(§2) Pharmacodynamic data were presented using summary statistics.

[2] = FIGHT-102 pemigatinib plasma/urine pharmacokinetics (noncompartmental); conditions: for AUC(0-t) / AUC / Cmax / Vd/F / Tmax / half-life: human, in vivo, 13.5 mg; for AUC: AUCss,0-24h; for Vd/F: Vz/F; for Tmax: median; for half-life: t½
Method: as §1, §2

pFGFR2 = conditions: read-out: In vivo IC50 for the inhibition of pFGFR2; cited from earlier work
FGF23 = assay: Plasma FGF23 concentration (Meso Scale Discovery assay); type: in vivo, human
Method: Plasma samples for pharmacodynamic assessments were collected predose on Days 1, 14, and 15 of Cycle 1 and any time on Day 1 (±3 days) of the subsequent cycles. […] Baseline FGF23 concentrations were assessed in plasma samples collected on Days 1 and 15 of Cycle 1 using a commercially available assay (Meso Scale Discovery). […] Inhibition of FGFR2 was assessed using an ex vivo assay that measured phosphorylated FGFR2α concentration following exposure of FGFR2‐amplified gastric cancer cells (KATOIII) to patient plasma.

[3] = geometric mean (CV%), C1D14, 13.5 mg ID or CD, n 33
[4] = mean ± SD, C1D14, 13.5 mg ID or CD, n 33
[5] = c1-2 9 mg ID n=3, c3-4 13.5 mg ID n=23, c5-6 18 mg ID n=5, c7-8 ID subtotal n=31, c9-10 13.5 mg CD n=13, c11-12 total n=44, odd c all grades, even c Grade ≥3

For `CCN1C(=O)N(c2c(F)c(OC)cc(OC)c2F)Cc2cnc3[nH]c(CN4CCOCC4)cc3c21` [Pemigatinib], the “Most common (>30%) overall TEAEs” value [1] is listed as “hyperphosphatemia, fatigue, dry mouth, stomatitis, diarrhea, and alopecia”, the “Recommended dosage for further studies” value [1] is listed as 13.5 mg QD and the AUC(0-t) (clinical; 9 mg, AUC0-24h, geometric mean (CV%)) is listed as 1.12 µM·h. The AUC(0-t) (clinical; 9 mg, AUC0-24h, mean ± SD) was 1.13 ± 0.133 µM·h, the AUC(0-t) (clinical; 9 mg, AUClast, geometric mean (CV%)) was 1.12 µM·h and the AUC(0-t) (clinical; 9 mg, AUClast, mean ± SD) was 1.12 ± 0.125 µM·h. For the same molecule, the AUC (clinical; 9 mg, geometric mean (CV%)) was 2.05 µM·h, the AUC (clinical; 9 mg, mean ± SD) was 2.54 ± 2.1 µM·h and the Cmax (clinical; 9 mg, Cmax, geometric mean (CV%)) was 110 nM. It also gave a Cmax (clinical; 9 mg, Cmax, mean ± SD) of 114 ± 35.3 nM, a Cmax (clinical; 9 mg, Cmax,ss, geometric mean (CV%)) of 127 nM and a Cmax (clinical; 9 mg, Cmax,ss, mean ± SD) of 155 ± 117 nM. It also gave a Vd/F (clinical; 9 mg, geometric mean (CV%)) of 209 L, a Vd/F (clinical; 9 mg, mean ± SD) of 224 ± 104 L and a Tmax (clinical; 9 mg) of 1.9 h. It also gave a half-life (clinical; 9 mg, geometric mean (CV%)) of 966 min, a half-life (clinical; 9 mg, mean ± SD) of 1030 ± 446 min and an AUC(0-t) (clinical; 18 mg, AUC0-24h, geometric mean (CV%)) of 3.31 µM·h. For the same molecule, the AUC(0-t) (clinical; 18 mg, AUC0-24h, mean ± SD) was 3.45 ± 1.02 µM·h, the AUC(0-t) (clinical; 18 mg, AUClast, geometric mean (CV%)) was 3.24 µM·h and the AUC(0-t) (clinical; 18 mg, AUClast, mean ± SD) was 3.38 ± 1.01 µM·h. The AUC (clinical; 18 mg, geometric mean (CV%)) was 6.56 µM·h, the AUC (clinical; 18 mg, mean ± SD) was 6.95 ± 2.78 µM·h and the Cmax (clinical; 18 mg, Cmax, geometric mean (CV%)) was 344 nM. The Cmax (clinical; 18 mg, Cmax, mean ± SD) was 431 ± 272 nM, the Cmax (clinical; 18 mg, Cmax,ss, geometric mean (CV%)) was 385 nM and the Cmax (clinical; 18 mg, Cmax,ss, mean ± SD) was 450 ± 285 nM. The Vd/F (clinical; 18 mg, geometric mean (CV%)) was 154 L, the Vd/F (clinical; 18 mg, mean ± SD) was 205 ± 188 L and the Tmax (clinical; 18 mg) was 1.02 h. For the same molecule, the half-life (clinical; 18 mg, geometric mean (CV%)) was 1130 min, the half-life (clinical; 18 mg, mean ± SD) was 1240 ± 672 min and the “tmax, median” value ([2]; C1D1, 13.5 mg ID or CD, n 36) was 1 h. The “CLss/F, geometric mean (CV%)” value ([2]; C1D14, 13.5 mg ID or CD, n 33) was 10.2 (55.5) L/h and 10.2 L/h, the “CLss/F, mean ± SD” value ([2]; C1D14, 13.5 mg ID or CD, n 33) was 11.6 ± 6.52 L/h and the “Cmin,ss, geometric mean (CV%)” value ([2]; C1D14, 13.5 mg ID or CD, n 33) was 56.0 (61.0) nM. For the same molecule, the “Cmin,ss, mean ± SD” value ([2]; C1D14, 13.5 mg ID or CD, n 33) was 66.2 ± 45.2 nM, the AUC(0-t) ([2]; AUC0-24h, geometric mean (CV%), C1D1, 13.5 mg ID or CD, n 36) was 1.88 µM·h and the AUC(0-t) ([2]; AUC0-24h, mean ± SD, C1D1, 13.5 mg ID or CD, n 36) was 2.02 ± 0.762 µM·h. It also gave an AUC(0-t) ([2]; AUClast, geometric mean (CV%), C1D1, 13.5 mg ID or CD, n 36) of 1.85 µM·h, an AUC(0-t) ([2]; AUClast, mean ± SD, C1D1, 13.5 mg ID or CD, n 36) of 1.99 ± 0.748 µM·h and an AUC [2, 3] of 2.72 µM·h. It also gave an AUC [2, 4] of 3.09 ± 1.68 µM·h, a Cmax ([2]; Cmax, geometric mean (CV%), C1D1, 13.5 mg ID or CD, n 36) of 216 nM and a Cmax ([2]; Cmax, mean ± SD, C1D1, 13.5 mg ID or CD, n 36) of 260 ± 136 nM. For the same molecule, the Cmax ([2]; Cmax,ss, geometric mean (CV%), C1D14, 13.5 mg ID or CD, n 33) was 195 nM, the Cmax ([2]; Cmax,ss, mean ± SD, C1D14, 13.5 mg ID or CD, n 33) was 238 ± 139 nM and the Vd/F [2, 3] was 201 L. For the same molecule, the Vd/F [2, 4] was 258 ± 216 L, the Tmax ([2]; C1D1, 13.5 mg ID or CD, n 36) was 1.43 h and the Tmax ([2]; C1D14, 13.5 mg ID or CD, n 33) was 1.02 h. For the same molecule, the half-life [2, 3] was 816 min, the half-life [2, 4] was 924 ± 542 min and the IC50 (pFGFR2) was 22.6 nM. For the same molecule, the “Mean increase of plasma FGF23” value (FGF23; 9 mg) was 2.6 fold, the “Mean increase of plasma FGF23” value (FGF23; 13.5 mg) was 2.9 fold and the “Rise of median FGF23 concentration from baseline” value (FGF23; 13.5 mg QD, first 2 weeks of treatment) was “slightly more than twofold”. The “Mean increase of plasma FGF23” value (FGF23; 18 mg) was 3.9 fold, the “Patients with elevated FGF23 concentration at Day 15 of Cycle 1” value (FGF23; 37/41 patients, all doses) was 90% and the “Mean FGF23 concentration” value (FGF23; C1D15, all doses, baseline 198 ± 29) was 464 ± 49 pg/mL. The “Maximum tolerated dose (MTD)” value (9-18 mg QD) was “not identified; also recorded: not reached”, the “Clinically notable TEAE: Eyelash changes (trichiasis)” value [5] was 2 (15.4) n (%) and the “TEAE: ALT increased” value [5] was 6 (13.6) n (%). For the same molecule, the “TEAE: AST increased” value [5] was 2 (15.4) n (%), the “TEAE: Blood alkaline phosphatase increased” value [5] was 2 (15.4) n (%) and the “TEAE: Blood creatinine increased” value [5] was 6 (13.6) n (%). For the same molecule, the “TEAE: Conjunctivitis” value [5] was 2 (15.4) n (%), the “TEAE: Decreased appetite” value [5] was 2 (15.4) n (%) and the “TEAE: Dry skin” value [5] was 2 (15.4) n (%). For the same molecule, the “TEAE: Keratitis” value [5] was 2 (15.4) n (%), the “TEAE: Malaise” value [5] was 6 (13.6) n (%) and the “TEAE: Nail discoloration” value [5] was 2 (15.4) n (%). For the same molecule, the “TEAE: Paronychia” value [5] was 6 (13.6) n (%), the “TEAE: Punctate keratitis” value [5] was 2 (15.4) n (%) and the “TEAE: Trichiasis” value [5] was 2 (15.4) n (%). The “TEAE: Vomiting” value [5] was 6 (13.6) n (%), the Chorioretinopathy (human, in vivo) was 2.3% and the “Clinically notable TEAE: serous retinal detachment (category)” value (human, in vivo) was 18.2%. The “Clinically notable ocular TEAE: dry eye (category)” value (human, in vivo) was 25%, the “Dose interruptions due to clinically notable TEAEs” value (human, in vivo) was 22.7% and the “Dose reductions due to clinically notable TEAEs” value (human, in vivo) was 6.8%. For the same molecule, the “Dry eye (term)” value (human, in vivo) was 6.8%, the “Eyelash changes (trichiasis)” value (human, in vivo) was 9.1% and the “Hyperphosphatemia leading to dose reduction” value (human, in vivo) was 2.3%. It also gave a Hypophosphatemia (human, in vivo) of 4.5%, a Keratitis (human, in vivo) of 11.4% and a Lacrimation increased (human, in vivo) of 2.3%. For the same molecule, the Nail discoloration (human, in vivo) was 6.8%, the Nail ridging (human, in vivo) was 2.3% and the “Nail toxicity TEAEs” value (human, in vivo) was 31.8. For the same molecule, the Oncholysis (human, in vivo) was 4.5%, the Onychomadesis (human, in vivo) was 11.4% and the Paronychia (human, in vivo) was 13.6%. For the same molecule, the “Patients with at least 1 treatment-related TEAE” value (human, in vivo) was 97.7%, the “Patients with treatment-related TEAEs of Grade ≥3” value (human, in vivo) was 15.9% and the Punctate keratitis (human, in vivo) was 6.8%. The “Serous retinal detachment (term)” value (human, in vivo) was 11.4%, the “Severity of hyperphosphatemia events” value (human, in vivo) was “Grades 1 or 2” and the Subretinal fluid (human, in vivo) was 4.5%. The “Treatment-related Grade ≥3 TEAE, each of anemia, punctate keratitis, diarrhea, stomatitis, ALT increased, AST increased, decreased appetite, hematuria” value (human, in vivo) was 2.3%, the “Treatment-related alanine aminotransferase increased, Grade ≥3” value (human, in vivo) was 1 (2.3) n (%) and the “Treatment-related aspartate aminotransferase increased, Grade ≥3” value (human, in vivo) was 1 (2.3) n (%). The “Treatment-related decreased appetite, Grade ≥3” value (human, in vivo) was 1 (2.3) n (%), the “Treatment-related diarrhea, Grade ≥3” value (human, in vivo) was 1 (2.3) n (%) and the “Treatment-related stomatitis, Grade ≥3” value (human, in vivo) was 1 (2.3) n (%). The Vision blurred (human, in vivo) was 4.5%, the “Recommended phase 2 dose (RP2D)” value (human, in vivo, 21 days) was 13.5 mg and the “Discontinuation due to hyperphosphatemia” value (in vivo) was “No patients”. For the same molecule, the “Dose-limiting toxicities (DLTs)” value (in vivo) was “No DLTs”, the “Patients with any TEAE” value (in vivo) was “all enrolled patients” and the “TEAE with a fatal outcome” value (overall, considered unrelated to pemigatinib) was 6.8%.

Reference: article PMC10225205 (Cancer Medicine, 2023)
